Paper PMC8776995 (Frontiers in Chemistry, 2022)
Where “and” joins values, the source holds several entries; their conditions need not be identical. Equal entries are not always repeated.

Legend:
[1] = tested on: A549 cells; assay: CCK-8 antiproliferation assay, A549; details: for Inhibitory efficacy: A549 cells
[2] = tested on: EGFR phosphorylation (Tyr1068) in H460 cells; assay: Western blot, p-EGFR/EGFR in H460; details: H460, 10 uM
Protocol: (§1) We also performed western blot analysis to evaluate the impact of e4 and e12 on EGFR signaling in PC-9 and H460 cells.
(§2) H460 cells were seeded in six-well plates with serum-free medium overnight, and then treated complete medium containing 0.1% DMSO, various concentrations (0.1, 1 and 10 μM) of either compound e4 or e12 for 2 h, respectively. […] Then the H460 cells were treated with complete medium containing EGF (10 ng/ml) for 5 min. Then the cells were harvested and washed with PBS, centrifuged, resuspended in 100–200 μl of RIPA lysis buffer containing Protease and Phosphatase Inhibitor Cocktail (1X), and then centrifuged for 5 min at 12,000 rpm at 4°C. The supernatant was used for protein analysis. […] Then the membrane was washed 5 min (X3) and incubated at 1:3,000 dilution of anti-rabbit secondary antibodies or 1:1,000 dilution of anti-mouse secondary antibodies for 1 h at RT. After washing with TBST 5 min (X3), protein bands were developed by chemiluminescence. The protein levels were quantified by the gray values of the bands in the resulting images by ImageJ, and the control group was used as the standard. […] The PC-9 cells were harvested and analyzed as above.

[3] = tested on: H1975 cells; assay: CCK-8 antiproliferation assay, H1975
[4] = tested on: EGFR phosphorylation (Tyr1068) in PC-9 cells; assay: Western blot, p-EGFR/EGFR in PC-9; details: PC-9, 10 uM
Protocol: as §1, §2

[5] = tested on: PC-9 cells; assay: CCK-8 antiproliferation assay, PC-9; details: Homo sapiens, PC-9, 48 h, read-out: IC50 (μM) PC-9
[6] = tested on: AKT phosphorylation (S473) in H460 cells; assay: Western blot, p-AKT/AKT in H460; details: H460, 10 uM
Protocol: as §1, §2

[7] = biological target: wild-type EGFR (Homo sapiens, UniProt P00533); assay: EGFR kinase assay (ELISA); details: for A450: raw ELISA absorbance
Protocol: The kinase enzyme of EGFR was purchased from Carna Bioscience (Kobe, Japan). A total of 10 ng/ml anti phosphotyrosine (PY713) antibody (abcam, Cambridge Science Park, United Kingdom) was precoated in 96-well ELISA plates. […] Then, a total of 3 μmol/L ATP was added and the reaction was continued for 2 h. […] After incubation, the wells were washed with PBS and then incubated with horseradish peroxidase (HRP)-conjugated streptavidin. The wells were visualized using 3,3′,5,5′-tetramethylbenzidine (TMB), and chromogenic reaction was ended with 2 mol/L H2SO4, the absorbance was read with a multimode plate reader (PerkinElmer, United States) at 450 nm.

[8] = tested on: AKT phosphorylation (S473) in PC-9 cells; assay: Western blot, p-AKT/AKT in PC-9; details: PC-9, 10 uM
Protocol: as §1, §2

[9] = tested on: PC-9 xenograft; assay: In vivo antitumor activity, PC-9 xenograft in NSG mice; design: species or system mouse; details: Day19, individual animals
Protocol: The mouse body mass was recorded as well.

[10] = tested on: H460 cells; assay: CCK-8 antiproliferation assay, H460

wild-type EGFR, sequence (P00533 25-1210): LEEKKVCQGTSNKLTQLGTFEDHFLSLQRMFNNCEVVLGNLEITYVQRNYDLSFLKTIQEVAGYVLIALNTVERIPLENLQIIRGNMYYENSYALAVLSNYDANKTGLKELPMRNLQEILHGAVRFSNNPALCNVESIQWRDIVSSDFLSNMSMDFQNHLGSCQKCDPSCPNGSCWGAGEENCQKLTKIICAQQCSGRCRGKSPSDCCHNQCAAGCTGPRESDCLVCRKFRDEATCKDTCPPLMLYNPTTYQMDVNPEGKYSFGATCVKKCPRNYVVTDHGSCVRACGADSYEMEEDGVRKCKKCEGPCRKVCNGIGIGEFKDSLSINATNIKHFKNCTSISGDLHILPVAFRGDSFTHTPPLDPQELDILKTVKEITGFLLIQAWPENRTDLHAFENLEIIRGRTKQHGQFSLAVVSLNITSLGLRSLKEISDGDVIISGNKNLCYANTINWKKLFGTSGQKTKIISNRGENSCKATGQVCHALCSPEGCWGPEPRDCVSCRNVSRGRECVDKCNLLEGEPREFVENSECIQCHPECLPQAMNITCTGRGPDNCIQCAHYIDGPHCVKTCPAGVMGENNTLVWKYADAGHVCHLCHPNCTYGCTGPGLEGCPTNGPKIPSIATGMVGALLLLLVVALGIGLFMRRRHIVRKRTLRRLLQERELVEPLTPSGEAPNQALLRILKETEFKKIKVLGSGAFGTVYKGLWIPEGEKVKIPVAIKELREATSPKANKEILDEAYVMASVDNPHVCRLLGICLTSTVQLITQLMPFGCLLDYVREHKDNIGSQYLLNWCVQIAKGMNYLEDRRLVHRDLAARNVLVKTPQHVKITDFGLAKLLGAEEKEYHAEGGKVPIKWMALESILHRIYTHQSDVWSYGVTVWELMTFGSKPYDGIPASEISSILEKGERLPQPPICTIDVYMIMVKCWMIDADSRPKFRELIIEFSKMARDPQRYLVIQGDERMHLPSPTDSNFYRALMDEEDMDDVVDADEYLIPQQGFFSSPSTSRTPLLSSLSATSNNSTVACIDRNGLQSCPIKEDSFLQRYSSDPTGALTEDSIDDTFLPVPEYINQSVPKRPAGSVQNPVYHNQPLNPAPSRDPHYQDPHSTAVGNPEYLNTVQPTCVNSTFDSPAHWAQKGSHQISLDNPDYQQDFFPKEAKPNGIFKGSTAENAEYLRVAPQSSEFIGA

COCCOc1cc2ncnc(Nc3cccc(-c4cn(-c5ccccc5)nn4)c3)c2cc1OCCOC [e15, [6,7-Bis-(2-methoxy-ethoxy)-quinazolin-4-yl]-[3-(1-phenyl-1H-[1,2,3]triazol-4-yl)-phenyl]-amine]
Inhibitory efficacy ([1]; 1uM, given as fraction, Repeat 1-3): 0.1367 and 0.1269
Inhibitory efficacy ([1]; 2uM, given as fraction, Repeat 1-3): 0.193 and 0.2629
Inhibitory efficacy ([1]; 4uM, given as fraction, Repeat 1-3): 0.2103 and 0.2621
Inhibitory efficacy ([1]; 8uM, given as fraction, Repeat 1-3): 0.2141 and 0.1622
Inhibitory efficacy ([1]; 16uM, given as fraction, Repeat 1-3): 0.2043 and 0.1059
IC50 ([1]; Homo sapiens, A549, 48 h, read-out: IC50 (μM) A549, CCK-8, 48 h, average ± SD of three independent experiments): > 100 µM
inhibition at 1 µM ([1]; Homo sapiens, A549, read-out: Inhibitory efficacy, A549 cells, 1uM, given as fraction, Repeat 1-3): 11.7%
inhibition at 2 µM ([1]; Homo sapiens, A549, read-out: Inhibitory efficacy, A549 cells, 2uM, given as fraction, Repeat 1-3): 15.2%
inhibition at 4 µM ([1]; Homo sapiens, A549, read-out: Inhibitory efficacy, A549 cells, 4uM, given as fraction, Repeat 1-3): 18.5%
inhibition at 8 µM ([1]; Homo sapiens, A549, read-out: Inhibitory efficacy, A549 cells, 8uM, given as fraction, Repeat 1-3): 14.6%
inhibition at 16 µM ([1]; Homo sapiens, A549, read-out: Inhibitory efficacy, A549 cells, 16uM, given as fraction, Repeat 1-3): 11.9%
p-EGFR/EGFR ([2]; band density ratio): 0.02304
p-EGFR/EGFR relative to DMSO ([2]; ratio normalised to DMSO): 0.02768
Inhibitory efficacy ([3]; H1975 cells, 8uM, given as fraction, Repeat 1-3): 0.07522 and 0.1057
IC50 ([3]; Homo sapiens, NCI-H1975, 48 h, read-out: IC50 (μM) H1975, CCK-8, 48 h, average ± SD of three independent experiments): > 100 µM
inhibition at 8 µM ([3]; Homo sapiens, NCI-H1975, read-out: Inhibitory efficacy, H1975 cells, 8uM, given as fraction, Repeat 1-3): 6.27%
p-EGFR/EGFR ([4]; band density ratio): 0.2353
p-EGFR/EGFR relative to DMSO ([4]; ratio normalised to DMSO = 1): 0.2103
IC50 [5]: > 100 µM
p-AKT/AKT ([6]; band density ratio): 0.08408
p-AKT/AKT relative to DMSO ([6]; ratio normalised to DMSO): 0.08452
IC50 ([7]; IC50 (μM) EGFR, ELISA, 3 μmol/L ATP): 0.09 µM
inhibition at 100 fM ([7]; concentration 0.0001 nM (reference for normalisation), one value per replicate column): 0%
Inhibition ([7]; concentration 0.03 nM, one value per replicate column, 3e-05 µM): 3.563 and 0.1327
Inhibition ([7]; concentration 0.3 nM, one value per replicate column, 0.0003 µM): 14.0143 and 0.8626
inhibition at 0.003 µM ([7]; concentration 3 nM, one value per replicate column): 33.2%
Inhibition ([7]; concentration 3 nM, one value per replicate column, 0.003 µM): 30.0597
inhibition at 0.03 µM ([7]; concentration 30 nM, one value per replicate column): 44.4%
Inhibition ([7]; concentration 30 nM, one value per replicate column, 0.03 µM): 47.6443
inhibition at 0.3 µM ([7]; concentration 300 nM, one value per replicate column): 59.3%
Inhibition ([7]; concentration 300 nM, one value per replicate column, 0.3 µM): 58.7259
inhibition at 3 µM ([7]; concentration 3000 nM, one value per replicate column): 68.1%
Inhibition ([7]; concentration 3000 nM, one value per replicate column, 3 µM): 67.4851
inhibition at 30 µM ([7]; concentration 30000 nM, one value per replicate column): 86.9%
Inhibition ([7]; concentration 30000 nM, one value per replicate column, 30 µM): 93.1652
A450 ([7]; concentration 0.0001 nM): 1.566 and 1.805
A450 ([7]; concentration 0.03 nM): 1.521 and 1.803
A450 ([7]; concentration 0.3 nM): 1.389 and 1.792
A450 ([7]; concentration 3 nM): 1.147 and 1.352
A450 ([7]; concentration 30 nM): 1.005 and 1.087
A450 ([7]; concentration 300 nM): 0.817 and 0.92
A450 ([7]; concentration 3000 nM): 0.706 and 0.788
A450 ([7]; concentration 30000 nM): 0.469 and 0.401
p-AKT/AKT ([8]; band density ratio): 0.03365
p-AKT/AKT relative to DMSO ([8]; ratio normalised to DMSO = 1): 0.03231
Tumor weight [9]: 0.04 g and 0.03 g and 0.02 g and 0.01 g
Inhibitory efficacy ([10]; H460 cells, 2uM, given as fraction, Repeat 1-3): 0.04615 and 0.05031
IC50 ([10]; Homo sapiens, NCI-H460, 48 h, read-out: IC50 (μM) H460, CCK-8, 48 h, average ± SD of three independent experiments): > 100 µM
inhibition at 2 µM ([10]; Homo sapiens, NCI-H460, read-out: Inhibitory efficacy, H460 cells, 2uM, given as fraction, Repeat 1-3): 5.86%
